Laboratory results taken from PMC8935241, “Ebselen enhances insulin sensitivity and decreases oxidative stress by inhibiting SHIP2 and protects from inflammation in diabetic mice” (International Journal of Biological Sciences, 2022).

Tests used:
[1] = molecular target: T1, SHIP1 (Src homology 2 domain-containing inositol-5-phosphatase 1) (Homo sapiens, UniProt Q92835); assay: malachite green phosphate assay with PI([…])P3 diC8 on recombinant phosphatase domain; assay type: biochemical
T1 construct: gene INPP5D; Recombinant His-tagged human SHIP1 phosphatase domain
T1 sequence (Q92835 399-715 limits assumed): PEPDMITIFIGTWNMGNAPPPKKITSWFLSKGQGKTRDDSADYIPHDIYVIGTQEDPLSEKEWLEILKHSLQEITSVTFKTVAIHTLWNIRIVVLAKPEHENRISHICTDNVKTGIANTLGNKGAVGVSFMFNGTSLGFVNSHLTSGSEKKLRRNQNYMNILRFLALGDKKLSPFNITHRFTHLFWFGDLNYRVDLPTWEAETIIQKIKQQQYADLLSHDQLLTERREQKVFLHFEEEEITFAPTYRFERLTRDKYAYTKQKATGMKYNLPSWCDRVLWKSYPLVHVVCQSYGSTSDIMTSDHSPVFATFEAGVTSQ

[2] = molecular target: T2, SHIP2 (Src homology 2 domain-containing inositol-5-phosphatase 2) (Homo sapiens, UniProt O15357); assay: as above; assay type: biochemical
T2 construct: gene INPPL1; Recombinant His-tagged human SHIP2 phosphatase domain
T2 sequence (O15357 419-732 limits assumed): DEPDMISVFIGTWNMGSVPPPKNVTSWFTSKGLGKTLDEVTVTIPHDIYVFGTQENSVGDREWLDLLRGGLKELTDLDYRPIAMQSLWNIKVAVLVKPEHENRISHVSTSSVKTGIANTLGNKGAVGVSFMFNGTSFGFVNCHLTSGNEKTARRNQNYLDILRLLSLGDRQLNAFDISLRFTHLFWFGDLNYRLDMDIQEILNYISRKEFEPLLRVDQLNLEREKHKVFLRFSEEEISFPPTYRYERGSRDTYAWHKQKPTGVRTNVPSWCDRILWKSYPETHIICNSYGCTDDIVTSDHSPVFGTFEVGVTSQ

## O=c1c2ccccc2[se]n1-c1ccccc1 [ebselen]
[1]
  IC50: 1810 nM
[2]
  IC50: 480 nM
